These results are taken from US10519133B2, “Vinyl compounds as FGFR and VEGFR inhibitors” (MEDSHINE DISCOVERY INC., priority 2015, dated 2019).

Read-outs that look alike come from different tables or passages of the source.

One data set deals with SNU-16 cell. The experiment in a line: CellTiter-Glo Luminescent Cell Viability Assay. The note with it: Homo sapiens, 72 h; SNU-16 cells, 3 days; read-out: SNU-16 IC50 (CellTiter-Glo Detection). Type of data set: cell-based. As to the method:
To detect the change of intracellular ATP by CellTiter-Glo® Luminescent Cell Viability Assay, and to evaluate the inhibitory effect of the compounds on in vitro cell SNU-16 using IC50 value of the compounds as an indicator.
Cell line: SNU-16 cell strain d. Diluting SNU-16 with medium, adding the diluted cells to the 384 plate (Greiner. 781090) (50 μL/well, SNU-16 cell 750 cells/well) with multi-channel pipette. Placing the cell plate in a 37° C., 5% CO2 incubator overnight. […]
g. Diluting the compound with DMSO to 10 mM, 3-fold dilution, 11 gradients, duplicate wells. h. Transferring 2.4 ul of the compound to the middle plate added with 47.6 ul of cell culture media at Bravo Automatic Liquid Station. Then transferring 5 ul to the cell culture plate (55 ul) to ensure the final DMSO concentration to be 0.4%. […]
i. Placing the cell culture plate in 5% CO2 incubator at 37° C. to continue cultivating for 3 days. d. Balancing Cell Titer Glo Reagent to room temperature e. Taking 30 ul of Cell Titer Glo Reagent in a 1:2 ratio into each well and gently mixing for 2 minutes f. Placing the cell culture plate in an incubator (23° C.) for 10 minutes, taking out and centrifuging at 1000 rpm for 1 minute g. Reading on Envision (Perkin Elmer) Plate Reader.
H. Analyzing Data: Analyzing the Data Using XLFIT (IDBS) and Calculating IC50 Values for the Compounds.

The target in another data set is T1, FGFR1 (Homo sapiens, UniProt P11362).
T1 construct: purchased Invitrogen PV4105
The experiment in a line: Z′-LYTE Detection Kinase Assay, in vitro enzymatic activity. Type of data set: biochemical. The note with it: 0.6 nM FGFR1, 2 uM Tyr4 peptide, 10 uM ATP, 60 min 23° C. On the procedure:
To measure enzyme activity by Z′-LYTE™ Detection Kinase Assay, and to evaluate the inhibitory effect of the compounds on FGFR1 using IC50 value of the compounds as an indicator. […]
Reaction Buffer: 50 mM Hepes (pH 7.5), 10 mM MgCl2, 1 mM EGTA, 0.01% Brij-35, 1 mM DTT, 2 mM MnCl2 0.6 nM FGFR1, 2 uM Tyr4 peptide and 10 uM ATP in reaction buffer (50 mM Hepes, pH 7.5, 10 mM MgCl2, 0.01% BRIJ-35, 1 mM EGTA, 4 mM MnCl2, 2 mM DTT). a. Diluting the compounds with DMSO to 10 mM, 3-fold dilution, 11 gradients, duplicate wells. b. Diluting the compound by 1:25 into middle plate at Bravo Automatic Liquid Station, then transferring 2.5 ul to the reaction plate to ensure the final DMSO concentration to be 1%. c. Transferring 5 ul of enzyme/substrate buffer into each well d. Using Multidrop Liquid Workstation to sequentially add ATP solution to each well e. Centrifuging at 1000 rpm for 1 minute f. Placing the reaction plate in an incubator at 23° C. to react for 60 min. a. Preparing a 1:128 mixture of Development Regent B and Development Buffer b. Adding 5 ul to each well and centrifuging at 1000 rpm for 1 minute c. Placing the reaction plate in a thermostat (23° C.) after centrifuging for 90 minutes, removing and reading on Envision (Perkin Elmer) Plate Reader
D. Analyzing Data: Analyzing Data Using XLFIT (IDBS) and Calculating IC50 Values for the Compounds.

Data set [1] has as its system FGFR1/2 Highly Expressed Patient-derived Liver Tumor Transplantation Model. The experiment in a line: Tumor growth inhibition (TGI) analysis. Type of data set: in vivo, mice. The note with it: BID. On the procedure: The evolutionary growth potential of tumors was evaluated by the relationship between tumor volume and time. The long axis (L) and short axis (W) of the subcutaneous tumor were measured twice a week by the caliper and the tumor volume (TV) was calculated by the formula ((L×W^2)/2). TGI was calculated from the difference between the median tumor volume in the solvent group mice and the median tumor volume in the drug group mice, expressed as a percentage counting for the median tumor volume in the solvent control group, calculated by the following formula: % TGI=((median tumor volume(control)−median tumor volume(dosing group))/median tumor volume(control group))×100
The original statistical analysis was done by repeating the analysis of variance, followed by Scheffe psot hoc experimental method for multiple comparisons, with solvent alone (0.5% methylcellulose+0.2% Tween in water) as negative control.

Data set [2] is described as follows: Pharmacokinetics after intravenous and intragastric administration (Experimental Example 4). Type of data set: in vivo. The note with it: female Balb/c nude mice; for bioavailability / AUC(0-t) / Cmax / half-life / clearance / Vd: mouse, plasma; for Cmax: read-out: peak concentration (Cmax); for half-life: read-out: elimination half-life (T1/2) (converted); for clearance: read-out: plasma clearance (CL); for Vd: read-out: steady state apparent volume of distribution (Vdss).
Method: Experimental Procedure: A clear solution of the test compound in 20% DMSO/60% PEG400/20% water at 1 mg/ml was injected via the caudal vein into female Balb/c nude mice (fasted overnight, 7-9 weeks of age) with a dose of 1 mg/kg. The test compound suspended in 0.5% Methocel/0.2% Tween 80 at 1 mg/ml was administered by intragastric administration to female Balb/c nude mice (fasted overnight, 7-9 weeks of age) with a dose of 10 mg/kg. About 30 μL of blood collected from the jugular vein or caudal vein at 0.0833, 0.25, 0.5, 1.0, 2.0, 4.0, 8.0 and 24 h after administration in both groups of animals, were placed in anticoagulation tube with EDTA-K2 and the plasma was centrifuged. Plasma concentrations were determined by LC-MS/MS and related pharmacokinetic parameters were calculated using the non-compartmental model linear logarithmic trapezoidal method using WinNonlin™ Version 6.3 (Pharsight, Mountain View, Calif.) pharmacokinetic software.

For data set [3] the following is noted: female, Balb/c nude, mouse, in vivo, 2 mg/kg.
Method: (§1) Experimental Procedure: A clear solution of the test compound in 20% DMSO/60% PEG400/20% water at 0.4 mg/ml was administered by intragastric administration to female Balb/c nude mice (fasted overnight, 7-9 weeks of age) with a dose of 2 mg/kg. About 30 μL of blood was collected from the jugular vein or caudal vein at 0.25, 0.5, 1.0, 2.0, 4.0, 8.0 and 24 h after administration in both groups of animals, placed in anticoagulation tube with EDTA-K2 and the plasma was centrifuged. Plasma concentrations were determined by LC-MS/MS and related pharmacokinetic parameters were calculated using the non-compartmental model linear logarithmic trapezoidal method using WinNonlin™ Version 6.3 (Pharsight, Mountain View, Calif.) pharmacokinetic software.
A further data set is described as follows: in vivo. The settings on record: female, Balb/c nude, mouse, po, 2 mg/kg.
The mark [4] stands for this setting: po, single intragastric administration 10 mg/kg.
Setting [5] is: po, single intragastric administration 10 mg/kg, read-out: AUC0-last.
Setting [6] is: single intravenous injection 1.0 mg/kg, read-out: area under the plasma concentration curve (AUC0-last).
Where [7] appears, read: single intravenous injection 1.0 mg/kg.
The mark [8] stands for this setting: single intragastric administration 10 mg/kg.

T1 sequence (P11362 22-822): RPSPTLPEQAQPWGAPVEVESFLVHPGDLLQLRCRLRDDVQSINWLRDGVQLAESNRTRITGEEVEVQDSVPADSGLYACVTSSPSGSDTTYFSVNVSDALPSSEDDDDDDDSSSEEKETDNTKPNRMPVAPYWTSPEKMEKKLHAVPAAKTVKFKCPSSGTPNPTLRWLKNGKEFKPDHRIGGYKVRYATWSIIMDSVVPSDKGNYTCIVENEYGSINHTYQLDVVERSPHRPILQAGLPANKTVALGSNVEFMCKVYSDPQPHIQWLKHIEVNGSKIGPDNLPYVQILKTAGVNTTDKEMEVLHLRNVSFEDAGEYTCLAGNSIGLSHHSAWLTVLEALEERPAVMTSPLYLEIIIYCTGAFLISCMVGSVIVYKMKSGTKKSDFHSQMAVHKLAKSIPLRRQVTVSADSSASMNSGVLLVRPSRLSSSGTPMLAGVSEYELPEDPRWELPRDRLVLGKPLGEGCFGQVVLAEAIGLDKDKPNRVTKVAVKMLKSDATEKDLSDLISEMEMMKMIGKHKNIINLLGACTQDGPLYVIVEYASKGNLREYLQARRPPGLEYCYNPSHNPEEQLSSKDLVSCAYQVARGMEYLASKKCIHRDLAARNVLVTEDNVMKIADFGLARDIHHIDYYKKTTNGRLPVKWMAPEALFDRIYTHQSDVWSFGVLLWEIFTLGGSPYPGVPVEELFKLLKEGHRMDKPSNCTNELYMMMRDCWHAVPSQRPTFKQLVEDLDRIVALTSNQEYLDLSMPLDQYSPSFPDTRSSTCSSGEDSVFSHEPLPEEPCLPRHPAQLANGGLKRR
Method for in vivo: as §1

`CC(Oc1ccc2[nH]nc(/C(F)=C/c3ccc(CN4CCOCC4)nc3)c2c1)c1c(Cl)cncc1Cl` (racemic) [Example 1]: the IC50 (commonly the midpoint of a concentration-inhibition curve) in the data set with SNU-16 cell lay in the range of 0.01 to 1 µM; against FGFR1, 0.05 to 1 µM.
`CC(Oc1ccc2[nH]nc(/C=C(\F)c3ccc(CN4CCOCC4)nc3)c2c1)c1c(Cl)cncc1Cl` (stereo not shown) [Example 16]: in data set [1] (15 mg/kg), the “TGI % (last administration)” value is 84.5%. Besides, the 50% inhibitory concentration (IC50) with SNU-16 cell is not above 0.01 µM; at FGFR1, 0.01 to 0.05 µM.
In the case of `C[C@H](Oc1ccc2[nH]nc(/C=C(\F)c3ccc(CNC4CCOCC4)nc3)c2c1)c1c(Cl)cncc1Cl` [Example 17], the half-maximal inhibitory concentration (IC50) in the data set with SNU-16 cell is not above 0.01 µM; at FGFR1, 0.05 to 1 µM.
`C[C@@H](Oc1ccc2[nH]nc(/C=C(\F)c3ccc(CNC4CCOCC4)nc3)c2c1)c1c(Cl)cncc1Cl` [Example 18]: the “TGI % (last administration)” value in data set [1] (5 mg/kg) amounted to 85%. The compound further registered an IC50 against FGFR1 not above 0.01 µM.
Regarding `C[C@@H](Oc1ccc2[nH]nc(/C=C(\F)c3ccc(CN4CCC(CO)CC4)nc3)c2c1)c1c(Cl)cncc1Cl` [Example 21], the IC50 in the data set with SNU-16 cell and against FGFR1 was not above 0.01 µM throughout.
Consider `C[C@@H](Oc1ccc2[nH]nc(/C=C(\F)c3ccc(CN4CCN(CC(=O)O)CC4)nc3)c2c1)c1c(Cl)cncc1Cl` [Example 29], for which the IC50 in the data set with SNU-16 cell was 0.01 to 1 µM; at FGFR1, not above 0.01 µM.
As to `C[C@@H](Oc1ccc2[nH]nc(/C=C(\F)c3ccc(CN4CCNCC4)nc3)c2c1)c1c(Cl)cncc1Cl` [Example 32], the IC50 in the data set on SNU-16 cell and against FGFR1 was not above 0.01 µM each time.
For `C[C@@H](Oc1ccc2[nH]nc(/C=C(\F)c3ccc(CN4CCN(C)CC4)nc3)c2c1)c1c(Cl)cncc1Cl` [Example 33], the IC50 in the data set with SNU-16 cell and at FGFR1 was not above 0.01 µM in each case.
As for `COC1CCN(Cc2ccc(/C(F)=C/c3n[nH]c4ccc(O[C@H](C)c5c(Cl)cncc5Cl)cc34)cn2)C1` (stereo partly shown) [Example 34], the IC50 in the data set with SNU-16 cell and against FGFR1 was not above 0.01 µM throughout.
Take `C[C@@H](Oc1ccc2[nH]nc(/C=C(\F)c3ccc(OCC4CCOCC4)nc3)c2c1)c1c(Cl)cncc1Cl` [Example 41]: the values for the IC50 in the data set on SNU-16 cell and on FGFR1 were not above 0.01 µM and 0.05 to 1 µM, respectively.
Taken in the same sequence, the figures for `C[C@@H](Oc1ccc2[nH]nc(/C=C(\F)c3ccc(NC4CCOCC4)nc3)c2c1)c1c(Cl)cncc1Cl` [Example 45] were not above 0.01 µM and 0.05 to 1 µM.
On to `C[C@@H](Oc1ccc2[nH]nc(/C=C(\F)c3ccc(NC4CCNCC4)nc3)c2c1)c1c(Cl)cncc1Cl` [Example 47], for which the IC50 in the data set with SNU-16 cell and against FGFR1 was not above 0.01 µM throughout.
As to `CC(Oc1ccc2[nH]nc(/C=C/c3cnc(CN4CCOCC4)cn3)c2c1)c1c(Cl)cncc1Cl` (stereo not shown) [Example 53], the concentration for half-maximal inhibition (IC50) in the data set on SNU-16 cell is not above 0.01 µM; on FGFR1, 0.01 to 0.05 µM.
On to `CC(Oc1ccc2[nH]nc(/C=C/c3ccc(CN4CCOCC4)nn3)c2c1)c1c(Cl)cncc1Cl` (stereo not shown) [Example 54], for which the “TGI % (last administration)” value in data set [1] (10 mg/kg) stood at 85.4%. Further, the half-maximal inhibitory concentration (IC50) on FGFR1 is not above 0.01 µM.
Turning to `CC(Oc1ccc2[nH]nc(/C=C/c3cc(F)c(CN4CCOCC4)cc3C#N)c2c1)c1c(Cl)cncc1Cl` (stereo not shown) [Example 62], the results for the IC50 in the data set with SNU-16 cell and at FGFR1 were not above 0.01 µM and 0.05 to 1 µM, respectively.
With `CC(Oc1ccc2[nH]nc(/C=C/c3ccc(CN4CCOCC4)cc3)c2c1)c1c(Cl)cncc1Cl` (stereo not shown) [Example 63], the “TGI % (last administration)” value in data set [1] (15 mg/kg) is recorded as 86%. Besides, the IC50 against FGFR1 was in the range of 0.01 to 0.05 µM.
In the case of `CC(Oc1ccc2[nH]nc(-c3ccc(NC(=O)CN4CCOCC4)nc3)c2c1)c1c(Cl)cncc1Cl` (stereo not shown) [Example 70], the values for the IC50 in the data set with SNU-16 cell and at FGFR1 were not above 0.01 µM and 0.05 to 1 µM, respectively.
Take `CC(Oc1ccc2[nH]nc(/C=C/c3ccc(CNC4CCN(C)CC4)cc3)c2c1)c1c(Cl)cncc1Cl` (stereo not shown) [Example 76]: the IC50 in the data set on SNU-16 cell and on FGFR1 was not above 0.01 µM each time.
The compound `C[C@@H](Oc1ccc2[nH]nc(/C=C(\F)c3ccc(CNC4CCOCC4)nc3)c2c1)c1ccncc1Cl` [Example 142] displayed a half-inhibitory concentration (IC50) against FGFR1 of 0.01 to 0.05 µM.
Regarding `CC(Oc1ccc2[nH]nc(/C=C(\F)c3ccc(CNC4CCOCC4)nc3)c2c1)c1ccc(F)cc1Cl` (stereo not shown) [Example 143], the IC50 at FGFR1 was in the range of 0.05 to 1 µM.
On the same count and under the same terms, as for `CC(Oc1ccc2[nH]nc(/C=C(\F)c3ccc(CNC4CCOCC4)nc3)c2c1)c1cc(F)cc(F)c1` (stereo not shown) [Example 144], the figure is not above 0.01 µM; as for `CC(Oc1ccc2[nH]nc(/C=C(\F)c3ccc(CNC4CCOCC4)nc3)c2c1)c1c(F)cccc1Cl` (stereo not shown) [Example 145], 0.05 to 1 µM; as for `CC(Oc1ccc2[nH]nc(/C=C(\F)c3ccc(CNC4CCOCC4)nc3)c2c1)c1c(F)cncc1F` (stereo not shown) [Example 146], not above 0.01 µM.
`CC(Oc1ccc2[nH]nc(/C=C(\F)c3ccc(CNC4CCOCC4)nc3)c2c1)c1c(F)cccc1F` (stereo not shown) [Example 147] registered a half-inhibitory concentration (IC50) on FGFR1 of 0.05 to 1 µM.
`CCN1CCC(C(C)Oc2ccc3[nH]nc(/C=C/c4ccc(CN5CCOCC5)cc4)c3c2)CC1` (stereo not shown) [Example 148] had an IC50 against FGFR1 of 0.05 to 1 µM.
The compound `CC(Oc1ccc2[nH]nc(/C=C/c3ccc(CN4CCOCC4)cc3)c2c1)C1CCN(C)CC1` (stereo not shown) [Example 149] came in with an IC50 against FGFR1 of 0.05 to 1 µM.
On to `C[C@@H](Oc1ccc2[nH]nc(/C=C/c3ccc(CNC4CCOCC4)nc3)c2c1)c1c(Cl)cncc1Cl` [WX_015, reference compound], for which, in data set [2] (setting [4]), the bioavailability (commonly the share of a dose that reaches the circulation, judged against a reference dose that is usually intravenous) amounted to 11.4% and the Cmax is 0.134 ± 0.0683 µM. Further, the AUC(0-t) in data set [2] (setting [5]) turned out to be 439 ± 202 nM·h. Moreover, the AUC(0-t) in data set [2] (setting [6]) was 386 ± 88.3 nM·h. Further, in data set [2] (setting [7]), the half-life was 0.971 ± 0.461 h; the clearance (as a rule, the rate of elimination divided by the concentration) came to 5.01 ± 1.11 L/h/kg; the Vd was found to be 5.31 ± 0.268 L/kg. The compound further displayed a peak time in data set [2] (setting [8]) of 1.50 ± 0.866 h.
As for `C[C@@H](Oc1ccc2[nH]nc(/C=C(\F)c3ccc(CNC4CCOCC4)nc3)c2c1)c1c(Cl)cncc1Cl` [WX_018], in data set [2] (setting [4]), the bioavailability worked out at 30.1% and the Cmax is 0.479 ± 0.0629 µM. Moreover, the AUC(0-t) in data set [2] (setting [5]) came to 1650 ± 40.1 nM·h. Moreover, the AUC(0-t) in data set [2] (setting [6]) is 567 ± 19.4 nM·h. In data set [2] (setting [7]), the half-life was 1.57 ± 0.0286 h, the clearance worked out at 3.18 ± 0.101 L/h/kg and the Vd was 5.45 ± 0.491 L/kg. Besides, the peak time in data set [2] (setting [8]) stood at 2.00 h.
`CC(Oc1ccc2[nH]nc(/C=C/c3ccc(CN4CCOCC4)cc3)c2c1)c1c(Cl)cncc1Cl` (stereo not shown) [WX_063] had a peak time in data set [3] of 0.25 h. For the same compound, in the data set “in vivo”, the AUC(0-t) turned out to be 221 ± 71.3 nM·h and the Cmax turned out to be 0.214 ± 0.0397 µM.
